Laboratory results from patent publication US20230390276A1, “TREATMENT OF AUTOIMMUNE DISEASES WITH A DIHYDROOROTATE HEHYDROGENASE (DHODH) INHIBITOR” (Aslan Pharmaceuticals Pte. Ltd., priority 2020, published 2023).

Tests used:
[1] = system: multiple sclerosis experimental autoimmune encephalomyelitis (EAE) model; experiment: EAE model of multiple sclerosis, clinical score (Example 1); format: in vivo; conditions: oral 1, 3, 10 or 15 mg/kg per day from Day 8 after disease induction
Source text: Experimental autoimmune encephalomyelitis (EAE) is a well-studied animal model of demyelinating diseases, such as human multiple sclerosis (MS). EAE is induced by injecting susceptible animals with purified myelin components, central nervous system (CNS) extract, or synthesized specific peptides emulsified in an adjuvant. The peptides are for example derived from myelin basic protein (MBP), myelin oligodendrocyte glycoprotein (MOG) or proteolipid protein (PLP). To investigate the effect of ASLAN003 on multiple sclerosis, ASLAN003 was administered orally to the EAE model at doses of 1 mg/kg, 3 mg/kg, 10 mg/kg or 15 mg/kg per day, starting from Day 8 after disease induction. A vehicle control was included.

EAE Lewis rat model [2] = experiment: EAE Lewis rat model, clinical score AUC (Example 2); format: in vivo, Male Lewis rats
Method: For the induction of EAE, guinea pig myelin basic protein (MBP) (Sigma, M2295) suspended in 0.9% saline solution at a concentration of 2 mg/ml was used. The solution was emulsified with an equal volume of Freund's complete adjuvant (Sigma, F5881) containing 4 mg/ml of heat-inactivated Mycobacterium tuberculosis H37Ra (Difeo Laboratories, Ref. 231141). Male Lewis rats were immunized with 0.1 ml of emulsion by subcutaneous injection into the right and left hind footpads with the emulsion containing MBP at 100 μg/rat.
Individual animals were examined daily for clinical signs of neurological deficits scored on a 0 to 5 scale, as follows:
Clinical signs of the disease were observed on day 8-9 after induction.
As disease progressed, animals with a score of 4 were sacrificed if disability indicated little chance of recovery, in accordance with animal welfare standards. Mortality due to sacrifice or spontaneous EAE-related death was recorded as a 5 on the given day. This death score continued to be included in the clinical assessment, but no body weight measurements could be carried forward.
LAS 186323 (ASLAN003), positive control T and positive control F were freshly prepared every day and suspended in 0.5% Methylcellulose and 0.1% Tween 80 in water, at the specified doses and administered by oral gavage in a volume of 10 ml/kg.
Evaluation of disability was performed on a daily basis and a clinical score given to each animal, as described. The area under the curve (AUC) of the clinical score was generated for each animal from the data recorded along the experiment. The percentage of inhibition of the AUC was calculated for every animal versus the mean of the AUC of the vehicle group. The mean percentage of inhibition per treatment and dose was calculated.

EAE Lewis rat model [3] = experiment: Histology of the CNS in EAE rats; format: in vivo, Male Lewis rats; conditions: highest doses tested; compared to vehicle-treated animals
Method: At the end of the experiment, animals were killed by exsanguination and necropsies were performed in a blind manner. The spinal cords (CNS; spinal cord, medulla oblonga, cerebellum) of EAE animals were obtained, fixed in 4% formalin in PBS, and embedded in paraffin. Six μm-thickness sections were prepared and then stained with hematoxylin and eosin. The histological score was evaluated as follows: • 0: no lesions; • 1: solitary lesions with cell infiltrates of low cellular density in the entire section; • 2: a few lesions with moderate cell infiltration in each of a few fields; • 3: many lesions in almost all fields with massive cell infiltration and accompanying edema (Kataoka, 2005).

[4] = Haematological cell count in EAE rats; format: in vivo, Male Lewis rats; conditions: for number of neutrophils: 24 hours after last administration, no statistically significant difference versus vehicle
Method: At the end of the assay, 24 h after last administration, blood samples from the retro-orbital plexus were obtained from all animals under light anaesthesia. Samples were used to determine complete blood cell count (XT-2000i/XT-1800i, Sysmex Corporation). Absolute values were reported for all cell types.

[5] = system: rheumatoid arthritis (RA) Adjuvant-Induced Arthritis (AIA) model; experiment: Adjuvant-induced arthritis (AIA) model, paw inflammation AUC; format: in vivo, Male Wistar rats; conditions: for % Inhibition of the AUC (mean ± SEM): vs mean of vehicle
[6] = WBC and platelet counts in AIA model; format: in vivo, Male Wistar rats; conditions: arthritic rats, 24 hrs after last administration
Method: Rats were administered the CFA suspension every day in the morning for 10 consecutive days. Body weight was measured every day and paw volumes every other day. On day 11 post-treatment (24 hrs after last administration), the rats were anesthetised, blood samples were collected from their retroorbital plexus to determine cell counts, and then sacrificed. Hind paws were excised to perform X-ray analysis and a score of radiological damage was performed by a scientist unaware in a blind manner.

[7] = system: rheumatoid arthritis (RA) Adjuvant-Induced Arthritis (AIA) model; experiment: X-ray (radiological) score of paws in AIA model; format: in vivo, Male Wistar rats; conditions: 3 mg/kg; 2 to 3 independent experiments
Method: Rats were administered the CFA suspension every day in the morning for 10 consecutive days. Body weight was measured every day and paw volumes every other day. On day 11 post-treatment (24 hrs after last administration), the rats were anesthetised, blood samples were collected from their retroorbital plexus to determine cell counts, and then sacrificed. Hind paws were excised to perform X-ray analysis and a score of radiological damage was performed by a scientist unaware in a blind manner. The radiological score is a composite of 5 different parameters evaluated from the X-ray images of every individual paw. The 5 parameters are: bone demineralisation, periostitis, narrowing of the joint space, cystic degeneration, and inflammation of the soft tissues. For each parameter, a value of 0-4 was assigned, which is proportional to the severity observed. The sum of the scores of the 5 parameters provides the radiological score for each animal. The effect of a treatment on the inhibition of the radiological score was measured by calculating the % inhibition of the radiological score of every animal belonging to a treatment group vs the mean of the vehicle treated group. In the case where several experiments were conducted, the values provided are the mean of the individual experiments and the SEM.

DSS induced IBD model = experiment: Dextran sulfate sodium (DSS) induced inflammatory bowel disease (IBD) mouse model; format: in vivo, Male C57BL/6 mice
Method: Male C57BL/6 mice aged 6-7 weeks were procured from Shanghai Lingchang Bio Tech Co. Ltd, China. Animals were randomized into groups based on the body weight: • Group 01: Purified water, ad libitum, Day 1-8; Vehicle, 5 mL/kg, P0, QD, Day 0-9, n=6 • Group 02: 3% DSS in water, ad libitum, Day 1-8; Vehicle, 5 mL/kg, P0, QD, Day 0-9, n=8 • Group 03: 3% DSS in water, ad libitum, Day 1-8; positive control V, 20 mg/kg, P0, QD, Day 0-9, n=8 • Group 04: 3% DSS in water, ad libitum, Day 1-8; ASLAN003, low dose, P0, QD, Day 0-9, n=8a • Group 05: 3% DSS in water, ad libitum, Day 1-8; ASLAN003, high dose, P0, QD, Day 0-9, n=8 • Abbreviations: QD=Once daily; PO=Oral gavage. • Study duration: 3 weeks of acclimation phase, and 10 days of treatment phase starting from Day 0 (Day 0-10). • Colitis model induction: To induce acute experimental colitis, mice in Groups 02-05 were provided ad libitum access to 3% DSS in purified water for 7 days (Day 1-7), followed by purified water for 2 days (Day 9-10). The drinking water containing DSS was changed once in two days. Mice in Group 01 was kept on purified water as a control, during Day 1-7. • In-life parameters measured: • Water and food consumption was monitored once daily during Day 0-10. • Body weight was measured once daily during Day 0-10, with twice daily clinical monitoring. • Stool observation as conducted once daily during Day 0-10. A disease activity index (DAI) was determined to quantify induction of colitis. • Intestinal permeability was assessed on Days 0 and 9. • Faeces was collected for lipocalin-2 detection on Days 0, 4, 8 and 10. • Study Termination: The mice were sacrificed on Day 10, and the following was performed on the sacrificed animals: • The entire colon (from caecum to anus) was collected and its length from ileocecal valve to anus was measured. • One photo of the entire colon for each mouse was taken. • The colon was opened along the mesenteric border, rinsed with saline, blotted dry and its weight was measured. • The colon was processed as ‘spiral Swiss Rolls’, fixed in 10% neutral-buffered formalin for 24-48 hours, and embedded in paraffin (one block per mouse) for hematoxylin-eosin (H&E) staining and histopathological evaluation. • The spleen was dissected, its tissue weight measured and recorded, and then discarded.

## COc1cccc(-c2cc(F)c(Nc3ncccc3C(=O)O)c(F)c2)c1 [ASLAN003, 2-(3,5-difluoro-3′-methoxybiphenyl-4-ylamino) nicotinic acid]
[1]
  clinical score compared to the vehicle control: significantly reduced clinical score
EAE Lewis rat model [2]; 1 mg/kg oral daily
  % AUC inhibition Mean (SEM) of clinical score: 41.1 (13.34) %
EAE Lewis rat model [2]; 3 mg/kg oral daily
  % AUC inhibition Mean (SEM) of clinical score: 44.4 (10.79) %
EAE Lewis rat model [2]; 10 mg/kg oral daily
  % AUC inhibition Mean (SEM) of clinical score: 65.1 (9.02) %
EAE Lewis rat model [2]; 15 mg/kg oral daily
  % AUC inhibition Mean (SEM) of clinical score: 84.4 (4.94) %
EAE Lewis rat model [2]; calculated by linear regression
  ED50 (clinical score AUC inhibition): 2.7 mg/kg/day
EAE Lewis rat model [3]
  CNS histological score (microscopic CNS lesions): profound improvement in the microscopic CNS lesions
[4]; 10 mg/kg
  number of neutrophils: not at 10 mg/kg
[4]; 3 and 15 mg/kg
  number of neutrophils: reduction in the number of neutrophils
[4]; once a day oral, 1-15 mg/kg
  blood cell count: did not have a significant effect
[5]; 1 mg/kg oral daily, 2 to 5 independent experiments
  AUC of right paw inflammation (mean ± SEM): 9.11 ± 3.14
[5]; 1 mg/kg oral daily
  % Inhibition of the AUC (mean ± SEM): 32.76 ± 22.8%
[5]; 3 mg/kg oral daily
  % Inhibition of the AUC (mean ± SEM): 53.09 ± 2.4%
[5]; 10 mg/kg oral daily
  % Inhibition of the AUC (mean ± SEM): 64.49 ± 4.6%
[5]; Rattus norvegicus, from 2 to 5 independent experiments, read-out: ED50 (mean % reduction in paw volume)
  ED50: 4.6 mg/kg
[6]; 1 mg/kg
  Platelets: 1418 ± 180 ×10^3/μl
  White blood cells: 20.6 ± 0 ×10^3/μl
[6]; 3 mg/kg
  Platelets: 1180 ± 45.9 ×10^3/μl
  White blood cells: 16.2 ± 0.86 ×10^3/μl
[7]
  X-ray score (mean ± SEM): 2.16 ± 0.25
DSS induced IBD model; 75 mg/kg PO QD (group 5), Days 2 to 9
  stool consistency: best overall stool consistency
DSS induced IBD model; 75 mg/kg PO QD (group 5), end of study
  spleen weight: most similar to the control group 1
DSS induced IBD model; 75 mg/kg PO QD (group 5), over the 10 days
  Disease Activity Index (DAI): lower overall increase in DAI
DSS induced IBD model; 75 mg/kg PO QD (group 5), over the course of the study
  bloody stools: lowest incidence of bloody stools
DSS induced IBD model; 25 and 75 mg/kg PO QD (groups 4 and 5), end of study, vs Vehicle group 2
  colon weight/length: fairly similar
DSS induced IBD model; 25 and 75 mg/kg PO QD (groups 4 and 5), vs vehicle treated group 2
  lipocalin in faeces (intestinal inflammation): less intestinal inflammation
DSS induced IBD model; 25 and 75 mg/kg PO QD Day 0-9 (groups 4 and 5), vs DSS induced vehicle group 2
  loss in body weight: similar
